Measured values as given in patent US10111955B2, “PEG derivative” (priority 2014, dated 2018).

Key:
pancreatic cancer cells = test: Test Example 1: pancreatic cancer cells transplanted into BALB/c nude mouse, tumor volume and body weight; type: in vivo; conditions: 4.5 mg/kg/day × 14 days, subcutaneous continuous infusion
Procedure: 5×10^6 cells of pancreatic cancer cells were transplanted into the right abdomen of a BALB/c nude mouse, and after 7 days, at the time point at which the average tumor size reached 100 mm^3, drug administration was initiated. Up to 29 days from the time of drug administration, the body weight of the mouse and the tumor volume were measured. The results are presented in FIG. 11, FIG. 12, and Table 1. Subcutaneous continuous infusion of 1-(2′-cyano-2′-deoxy-β-D-arabinofuranosyl)cytosine hydrochloride (DFP-10917) at a dose of 4.5 mg/kg/day was continuously performed for two weeks using a micropump embedded in the body of the mouse. In contrast, Compound (1a) was intravenously administered once a week at a dose of 100 mg/kg, 200 mg/kg, or 300 mg/kg. The dosage of this Compound (1a) is administration once a week at a dose of 2.4 mg/kg, 4.8 mg/kg, or 7.2 mg/kg, as converted to […]. For the control, a buffer solution (pH=5.0) of sodium acetate was administered.

[1] = system: Human lung cancer cell A549 cells; test: Test Example 5 (second): human lung cancer cell A549 transplanted into nude mouse, Tables 5 and 6; type: in vivo, BALB/c nude mouse; conditions: once a day, for 2 weeks
From the text: Human lung cancer cell A549 cells were transplanted into the right abdomen of a BALB/c nude mouse, and after 11 days, at the time point at which the average tumor size reached 200 mm^3, drug administration was initiated.

[2] = system: human pancreatic cancer cell Panc-1; test: Test Example 5: human pancreatic cancer cell Panc-1 transplanted into nude mouse; type: in vivo, BALB/c nude mouse; conditions: 100 mg/kg iv, repeated four times, total dosage 400 mg/kg
Procedure: (§1) Compound (1a) was intravenously administered once a week at a dose of 200 mg/kg (the amount as converted to DFP-10917 was 4.8 mg/kg), and pemetrexed, which is a standard drug for lung cancer, was intraperitoneally administered once a week at a dose of 300 mg/kg. For the control, physiological saline was intravenously administered once a week. The observation was made for two weeks (administered two times in total). 5×10^6 cells of human pancreatic cancer cell Panc-1 were transplanted into the right abdomen of a BALB/c nude mouse, and drugs were administered in the same manner as in Test Example 3. Compound (1g) was intravenously administered once a week, two times in total, or twice a week. Gemcitabine was administered such that 100 mg/kg was administered in four divided portions over 3 days, and this intravenous administration was repeated four times in total. For the control, physiological saline was administered once a week.

[3] = system: human breast cancer cell BT474; test: Test Example 4: human breast cancer cell BT474 transplanted into nude mouse; type: in vivo, BALB/c nude mouse; conditions: 100 mg/kg once a week, total dosage 200 mg/kg
Procedure: as §1, with “1×10^7” for “5×10^6”, “breast” for “pancreatic”, “BT474” for “Panc-1”, “3. DFP-10917 and” for “3.”, “(1a) were” for “(1g) was”, “two” for “two times in total, or twice a week. Gemcitabine was administered such that 100 mg/kg was administered in four divided portions over 3 days, and this intravenous administration was repeated four”

[4] = system: human breast cancer cell BT474; test: Test Example 6: human breast cancer cell BT474 transplanted into nude mouse; type: in vivo, BALB/c nude mouse; conditions: 5 mg/kg iv, once a week, for 2 weeks
Procedure: 1×10^7 cells of human breast cancer cell BT474 were transplanted into the right abdomen of a BALB/c nude mouse, and when the tumor volume reached 100 to 150 mm^3, drugs were administered. The administration was implemented once a week for two weeks.

[5] = system: human lung cancer cell A549; test: Test Example 3: human lung cancer cell A549 transplanted into nude mouse; type: in vivo, BALB/c nude mouse; conditions: 300 mg/kg intraperitoneally once a week, total dosage 600 mg/kg, two weeks
Procedure: 5×10^6 cells of human lung cancer cell A549 were transplanted into the right abdomen of a BALE/c nude mouse, and after 14 days, at the time at which the average tumor size reached 127 mm^3, drug administration was initiated. Compound (1a) was intravenously administered once a week at a dose of 200 mg/kg (the amount as converted to DFP-10917 was 4.8 mg/kg), and pemetrexed, which is a standard drug for lung cancer, was intraperitoneally administered once a week at a dose of 300 mg/kg. For the control, physiological saline was intravenously administered once a week. The observation was made for two weeks (administered two times in total).

Compound: Cl.N#C[C@H]1[C@H](O)[C@@H](CO)O[C@H]1n1ccc(N)nc1=O [DFP-10917, 1-(2′-cyano-2′-deoxy-β-D-arabinofuranosyl)cytosine hydrochloride]
- TGI (D 29, %) tumor growth inhibition (pancreatic cancer cells): 37.7%
- Tumor Volume (D 29, mm^3) (pancreatic cancer cells; Mean ± SEM): 917 ± 72 mm^3

Compound: CCNCCNC(=O)c1c(C)[nH]c(/C=C2\C(=O)Nc3ccc(F)cc32)c1C [De-ethylated form of sunitinib]
- TGI (D 29, %) ([1]; 50 mg/kg po): 43.1%
- Tumor Volume (D 29, mm^3) ([1]; 50 mg/kg po): 687 ± 103 mm^3

Compound: Nc1ccn([C@@H]2O[C@H](CO)[C@@H](O)C2(F)F)c(=O)n1 [Gemcitabine, gemcitabine]
- TGI (tumor growth inhibition) [2]: 63.6
- Tumor Volume ([2]; in mm³ (unit assumed)): 370 ± 37
- TGI (tumor growth inhibition) [3]: 43
- Tumor Volume [3]: 525 ± 95

Compound: CS(=O)(=O)CCNCc1ccc(-c2ccc3ncnc(Nc4ccc(OCc5cccc(F)c5)c(Cl)c4)c3c2)o1 [Lapatinib, lapatinib]
- TGI (D 29, %) ([1]; 100 mg/kg po): 25.6%
- Tumor Volume (D 29, mm^3) ([1]; 100 mg/kg po): 898 ± 120 mm^3

Compound: CC(=O)O[C@H]1C(=O)[C@@]2(C)[C@H]([C@H](OC(=O)c3ccccc3)[C@]3(O)C[C@H](OC(=O)[C@H](O)[C@@H](NC(=O)c4ccccc4)c4ccccc4)C(C)=C1C3(C)C)[C@]1(OC(C)=O)CO[C@@H]1C[C@@H]2O [Paclitaxel, paclitaxel]
- TGI (D 23, %) tumor growth inhibition ratio [4]: 29.8%
- Tumor Volume (D 23, mm^3) [4]: 275 ± 39 mm^3

Compound: Nc1nc2[nH]cc(CCc3ccc(C(=O)N[C@@H](CCC(=O)O)C(=O)O)cc3)c2c(=O)[nH]1 [Pemetrexed, pemetrexed]
- TGI (tumor growth inhibition) [5]: 30
- Tumor Volume ([5]; in mm³): 818 ± 44
